Source: ChEMBL document CHEMBL1201862, “PubChem BioAssay data set” (2004)
The source made the active and inactive calls.

Tests used:
Cytochrome P450 3A4 = Cytochrome P450 3A4 (Homo sapiens, UniProt P08684); conditions: Potency;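 further: confirmatory qHTS run detecting inhibitors and substrates of CYP3A4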
[1] = alpha-synuclein stem-loop luciferase translation blockers – H4 neuroglioma cells, luminescence, confirmation (AID 1988); assay type: functional, cell-based
cells = assay type: functional, cell-based
[2] = luciferase reporter signal reduction – luminescence, H4-C neuroglioblastoma cells, dose response (AID 2458); assay type: functional, cell-based;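 further: H4 neuroglioblastoma cells stably carrying a luciferase reporter gene fusion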
[3] = Luminescence Cell-Based Dose Response HTS to Identify Inhibitors of 5'UTR Stem-Loop Driven Prion Protein mRNA Translation in H4 Neuroglioblastoma Cells. [Related pubchem assays: 1827 (Project Summary), 1813 (Primary HTS)]; assay type: functional
[4] = luciferase reporter signal suppression in cells – H4 neuroglioma cells, luminescence, dose response (AID 1990); assay type: functional, cell-based
[5] = alpha-synuclein stem-loop translation blockers – luminescence, H4 neuroglioblastoma cells, dose confirmation, confirmation (AID 2454); assay type: functional, cell-based;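 further: H4 neuroglioblastoma cells carrying an alpha-synuclein 5'UTR luciferase reporter; potency for inhibition of the luciferase signal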
[6] = molecular target: T1, Intestinal-type alkaline phosphatase (Homo sapiens, UniProt P09923); experiment: human intestinal alkaline phosphatase activators, dose response, biochemical, luminescence, uHTS hits (AID 463120); assay type: functional
[7] = molecular target: T1, Intestinal-type alkaline phosphatase; experiment: activation of human intestinal alkaline phosphatase – biochemical, luminescent, uHTS hits, set 2, dose response (AID 488817); assay type: functional;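 further: potency of activators that raise enzyme activity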
[8] = molecular target: Intestinal-type alkaline phosphatase (Mus musculus, UniProt P24822); experiment: PubChem AID 488874; assay type: functional
[9] = molecular target: T2, Alkaline phosphatase, tissue-nonspecific isozyme (Homo sapiens, UniProt P05186); experiment: activation of tissue-nonspecific alkaline phosphatase – biochemical, TNAP isozyme, human IAP uHTS hits, selectivity assay for human IAP activator project, dose response (AID 488886); assay type: functional;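 further: potency of compounds raising TNAP activity as a selectivity check on IAP activators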
T2 sequence (P05186 whole entry): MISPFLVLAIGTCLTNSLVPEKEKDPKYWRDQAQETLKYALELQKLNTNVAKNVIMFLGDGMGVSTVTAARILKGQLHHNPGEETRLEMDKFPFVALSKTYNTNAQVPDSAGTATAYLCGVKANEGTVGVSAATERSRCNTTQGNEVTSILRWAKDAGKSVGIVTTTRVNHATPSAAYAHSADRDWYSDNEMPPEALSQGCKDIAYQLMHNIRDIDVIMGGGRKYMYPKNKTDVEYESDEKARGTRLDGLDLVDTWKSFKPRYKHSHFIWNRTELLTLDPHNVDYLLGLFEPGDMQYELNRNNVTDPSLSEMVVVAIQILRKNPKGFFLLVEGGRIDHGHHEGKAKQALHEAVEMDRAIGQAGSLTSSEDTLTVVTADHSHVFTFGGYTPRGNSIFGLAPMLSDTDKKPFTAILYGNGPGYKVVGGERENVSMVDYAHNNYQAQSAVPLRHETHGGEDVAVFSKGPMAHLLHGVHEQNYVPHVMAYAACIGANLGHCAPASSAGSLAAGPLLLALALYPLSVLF

[10] = molecular target: NACHT, LRR and PYD domains-containing protein 1 (Homo sapiens, UniProt Q9C000); experiment: NALP1 inhibitors in yeast, dose response, luminescent (AID 488860); assay type: functional
Saccharomyces cerevisiae = experiment: S. cerevisiae Caspase-1/ASC signal blockers IC50, NALP1 inhibitor project selectivity test (AID 488863); assay type: functional, organism-based
Bcl-2-like protein 10 = Bcl-2-like protein 10 (Homo sapiens, UniProt Q9HD36); experiment: Bcl-B/TR3 peptide binding disruption – biochemical, fluorescence polarization, FITC-TR3 peptide, selectivity assay for Bfl-1 inhibitor project, primary screen (AID 748);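 further: fluorescence polarization from a fluorescein-labelled TR3 peptide binding purified Bcl-B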
[11] = Luminescence Cell-Based Dose Response HTS to Identify Activators of 5'UTR Stem-Loop Driven Prion Protein mRNA Translation in H4-C Neuroglioblastoma Cells. [Related pubchem assays: 1829 (Project Summary), 1814 (Primary HTS)]; assay type: functional
[12] = Luminescence Cell-Based Dose Response HTS to Identify Activators of Luciferase Translation or Activity in H4 […] Cells. [Related pubchem assays: 1829 (Project Summary), 1814 (Primary HTS)]; assay type: functional
[13] = Luminescence Cell-Based Dose Confirmation HTS to Identify Activators of 5'UTR Stem-Loop Driven Alpha-Synuclein mRNA Translation in H4 Neuroglioblastoma Cells. [Related pubchem assays: 1829 (Project Summary), 1814 (Primary HTS)]; assay type: functional
[14] = Luminescence Cell-Based Dose Retest to Confirm Activators of 5'UTR Stem-Loop Driven Alpha-Synuclein mRNA Translation in H4 Neuroglioblastoma Cells. [Related pubchem assays (depositor defined):AID1813, AID1829]; assay type: functional
[15] = Luminescence Cell-Based Dose Response HTS to Identify Activators of Luciferase Translation or Activity in H4-C Neuroglioblastoma Cells. [Related pubchem assays: 1829 (Project Summary), 1814 (Primary HTS)]; assay type: functional
H4 = experiment: Luminescence Cell-Based Dose Response HTS to Identify Activators of 5'UTR Stem-Loop Driven Prion Protein mRNA Translation in H4 Neuroglioblastoma Cells. [Related pubchem assays: 1829 (Project Summary), 1814 (Primary HTS)]; assay type: functional; conditions: Homo sapiens
SUMO-activating enzyme [16] = molecular target: T3, SUMO-activating enzyme (Homo sapiens, UniProt Q9UBT2); experiment: blockers of UBC9-mediated SUMO conjugation – biochemical, AlphaScreen, SUMOylation inhibitor project, confirmation (AID 2018); assay type: functional
[17] = molecular target: T4, Probable nicotinate-nucleotide adenylyltransferase (Staphylococcus aureus (strain N315), UniProt P65502); assay type: functional, Staphylococcus aureus subsp. aureus N315; conditions: read-out: IC50_Mean;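 on IC50 Mean: confirmatory dose-response retesting of NadD inhibitor hits first found in an ultra-high-throughput screen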
[18] = molecular target: Induced myeloid leukemia cell differentiation protein Mcl-1 (Homo sapiens, UniProt Q07820); assay type: functional
[19] = molecular target: T4, Probable nicotinate-nucleotide adenylyltransferase; assay type: functional, Staphylococcus aureus subsp. aureus N315
SUMO-activating enzyme [20] = molecular target: T3, SUMO-activating enzyme; experiment: blockers of SAE1/SAE2–UBC9 SUMO transfer – biochemical, HTRF, uHTS, primary screen (AID 2006); assay type: protein-complex assay
[21] = protection from phage-mediated lysis, alamar blue read-out – E. coli UTI89, K1F phage, bacterial capsule biogenesis inhibitors (AID 488966); assay type: functional
Vasopressin V1a receptor = Vasopressin V1a receptor (Homo sapiens, UniProt P37288); experiment: Counterscreen for Oxytocin Receptor (OXTR) agonists: Fluorescence-based cell-based high throughput dose response assay to identify agonists of the vasopressin 1 receptor (V1R). [Related pubchem assays: 2435 (Primary screen (OXTR agonists in singlicate)), 434991 (Counterscreen (V1R agonists in triplicate)), 2482 (Summary (OXTR agonists)) …; assay type: functional
Oxytocin receptor = Oxytocin receptor (Homo sapiens, UniProt P30559); experiment: Fluorescence-based cell-based high throughput dose response assay for agonists of the Oxytocin Receptor (OXTR). [Related pubchem assays: 2435 (Primary screen (OXTR agonists in singlicate)), 434991 (Counterscreen (V1R agonists in triplicate)), 2482 (Summary (OXTR agonists)), 434963 (Confirmation screen (OXTR agonists in triplicate))]; assay type: functional
[22] = molecular target: Photoreceptor-specific nuclear receptor (Homo sapiens, UniProt Q9Y5X4); assay type: functional, cell-based;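 further: CHO-S cells with Gal4-NCOR and VP16-NR2E3 two-hybrid luciferase reporter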
Sequence of Photoreceptor-specific nuclear receptor (Q9Y5X4 whole entry, the tested form may be a part): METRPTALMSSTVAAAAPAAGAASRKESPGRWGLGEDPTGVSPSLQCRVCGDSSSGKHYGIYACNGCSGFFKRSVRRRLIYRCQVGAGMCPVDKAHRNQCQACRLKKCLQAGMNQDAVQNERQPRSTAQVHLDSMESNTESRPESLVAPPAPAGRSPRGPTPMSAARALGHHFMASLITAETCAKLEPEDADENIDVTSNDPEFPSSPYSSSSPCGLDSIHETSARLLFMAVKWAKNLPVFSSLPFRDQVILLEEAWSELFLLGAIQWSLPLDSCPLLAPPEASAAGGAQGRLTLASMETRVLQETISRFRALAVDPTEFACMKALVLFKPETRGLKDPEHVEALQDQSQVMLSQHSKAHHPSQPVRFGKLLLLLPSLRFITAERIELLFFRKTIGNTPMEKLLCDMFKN

T4 sequence (P65502 whole entry): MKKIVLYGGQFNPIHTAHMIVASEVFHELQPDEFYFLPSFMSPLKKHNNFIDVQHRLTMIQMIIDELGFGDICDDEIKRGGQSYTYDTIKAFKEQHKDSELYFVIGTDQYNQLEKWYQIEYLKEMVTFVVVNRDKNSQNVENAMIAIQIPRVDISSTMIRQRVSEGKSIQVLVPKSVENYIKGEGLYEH
T3 sequence (Q9UBE0 whole entry): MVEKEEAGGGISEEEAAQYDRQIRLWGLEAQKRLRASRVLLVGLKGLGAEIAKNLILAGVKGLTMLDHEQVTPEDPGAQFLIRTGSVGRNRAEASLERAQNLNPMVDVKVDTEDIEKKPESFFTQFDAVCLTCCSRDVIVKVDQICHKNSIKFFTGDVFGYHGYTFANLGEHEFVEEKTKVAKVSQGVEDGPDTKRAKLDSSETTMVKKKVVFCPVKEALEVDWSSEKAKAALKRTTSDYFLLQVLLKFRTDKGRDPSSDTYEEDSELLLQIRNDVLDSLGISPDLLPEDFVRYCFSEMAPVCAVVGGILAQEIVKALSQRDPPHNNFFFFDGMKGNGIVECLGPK
T3 sequence (Q9UBT2 whole entry): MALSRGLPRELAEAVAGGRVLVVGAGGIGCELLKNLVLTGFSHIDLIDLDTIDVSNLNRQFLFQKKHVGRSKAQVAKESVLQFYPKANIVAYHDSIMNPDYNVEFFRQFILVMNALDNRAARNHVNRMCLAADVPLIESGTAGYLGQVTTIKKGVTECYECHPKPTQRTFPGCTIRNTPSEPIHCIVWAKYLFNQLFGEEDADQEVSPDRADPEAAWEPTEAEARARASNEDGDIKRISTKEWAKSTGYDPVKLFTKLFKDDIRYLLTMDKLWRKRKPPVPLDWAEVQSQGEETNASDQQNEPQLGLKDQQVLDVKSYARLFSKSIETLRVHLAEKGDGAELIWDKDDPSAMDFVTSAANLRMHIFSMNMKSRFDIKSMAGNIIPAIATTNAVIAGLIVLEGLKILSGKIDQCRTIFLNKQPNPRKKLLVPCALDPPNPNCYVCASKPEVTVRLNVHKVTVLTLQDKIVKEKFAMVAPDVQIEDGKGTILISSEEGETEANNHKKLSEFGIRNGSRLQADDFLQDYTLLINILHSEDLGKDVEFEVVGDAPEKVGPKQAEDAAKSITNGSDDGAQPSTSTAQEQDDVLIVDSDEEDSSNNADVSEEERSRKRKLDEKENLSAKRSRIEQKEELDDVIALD
T1 sequence (P09923 whole entry): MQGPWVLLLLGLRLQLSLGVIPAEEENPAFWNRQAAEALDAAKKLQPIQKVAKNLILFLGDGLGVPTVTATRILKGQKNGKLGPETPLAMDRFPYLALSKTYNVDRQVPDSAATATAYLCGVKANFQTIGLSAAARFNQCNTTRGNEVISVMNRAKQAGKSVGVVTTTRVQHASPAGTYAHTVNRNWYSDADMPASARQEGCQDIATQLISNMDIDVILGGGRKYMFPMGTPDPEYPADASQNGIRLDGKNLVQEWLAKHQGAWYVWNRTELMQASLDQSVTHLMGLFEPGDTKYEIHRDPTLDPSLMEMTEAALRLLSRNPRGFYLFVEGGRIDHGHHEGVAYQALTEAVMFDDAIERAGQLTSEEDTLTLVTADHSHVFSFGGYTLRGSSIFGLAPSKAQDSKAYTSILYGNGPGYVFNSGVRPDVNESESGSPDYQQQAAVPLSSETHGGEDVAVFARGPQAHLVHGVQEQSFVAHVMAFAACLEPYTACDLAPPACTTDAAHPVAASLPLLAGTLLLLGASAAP
Sequence of Bcl-2-like protein 10 (Q9HD36 whole entry): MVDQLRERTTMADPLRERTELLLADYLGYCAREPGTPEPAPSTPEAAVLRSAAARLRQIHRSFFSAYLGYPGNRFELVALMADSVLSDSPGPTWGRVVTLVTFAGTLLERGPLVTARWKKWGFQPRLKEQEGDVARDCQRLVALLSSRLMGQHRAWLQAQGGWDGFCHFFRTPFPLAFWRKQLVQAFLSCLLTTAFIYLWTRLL
Sequence of Intestinal-type alkaline phosphatase (Mus musculus, UniProt P24822) (P24822 whole entry): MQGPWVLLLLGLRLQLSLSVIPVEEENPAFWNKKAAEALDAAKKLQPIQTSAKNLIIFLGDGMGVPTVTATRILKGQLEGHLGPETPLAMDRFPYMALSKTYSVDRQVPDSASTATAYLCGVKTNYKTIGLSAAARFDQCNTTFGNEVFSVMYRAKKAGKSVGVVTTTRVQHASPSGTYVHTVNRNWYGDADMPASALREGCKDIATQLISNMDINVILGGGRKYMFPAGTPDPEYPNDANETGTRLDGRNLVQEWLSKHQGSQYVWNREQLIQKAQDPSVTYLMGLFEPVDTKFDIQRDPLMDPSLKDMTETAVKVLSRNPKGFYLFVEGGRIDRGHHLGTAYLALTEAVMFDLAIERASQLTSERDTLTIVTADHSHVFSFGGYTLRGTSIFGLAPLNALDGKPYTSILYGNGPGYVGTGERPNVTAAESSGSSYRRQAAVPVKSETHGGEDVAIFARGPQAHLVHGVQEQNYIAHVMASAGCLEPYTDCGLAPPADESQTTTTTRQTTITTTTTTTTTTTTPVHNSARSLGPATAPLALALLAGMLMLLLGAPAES
Sequence of Cytochrome P450 3A4 (P08684 whole entry): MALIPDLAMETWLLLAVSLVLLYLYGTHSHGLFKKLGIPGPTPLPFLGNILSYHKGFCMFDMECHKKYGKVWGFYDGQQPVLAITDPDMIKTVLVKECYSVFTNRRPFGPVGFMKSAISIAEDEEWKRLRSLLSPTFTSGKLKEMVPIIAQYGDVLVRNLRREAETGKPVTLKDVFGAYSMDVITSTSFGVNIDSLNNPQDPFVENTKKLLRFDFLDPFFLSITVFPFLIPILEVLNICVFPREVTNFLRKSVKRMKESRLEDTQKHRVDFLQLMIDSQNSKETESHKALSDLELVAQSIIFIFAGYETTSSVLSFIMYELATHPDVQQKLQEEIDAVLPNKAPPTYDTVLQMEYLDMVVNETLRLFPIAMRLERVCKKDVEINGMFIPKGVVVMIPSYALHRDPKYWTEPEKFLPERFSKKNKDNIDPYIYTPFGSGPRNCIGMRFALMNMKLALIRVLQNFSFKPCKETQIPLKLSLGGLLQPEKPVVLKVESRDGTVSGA
Sequence of Vasopressin V1a receptor (P37288 whole entry): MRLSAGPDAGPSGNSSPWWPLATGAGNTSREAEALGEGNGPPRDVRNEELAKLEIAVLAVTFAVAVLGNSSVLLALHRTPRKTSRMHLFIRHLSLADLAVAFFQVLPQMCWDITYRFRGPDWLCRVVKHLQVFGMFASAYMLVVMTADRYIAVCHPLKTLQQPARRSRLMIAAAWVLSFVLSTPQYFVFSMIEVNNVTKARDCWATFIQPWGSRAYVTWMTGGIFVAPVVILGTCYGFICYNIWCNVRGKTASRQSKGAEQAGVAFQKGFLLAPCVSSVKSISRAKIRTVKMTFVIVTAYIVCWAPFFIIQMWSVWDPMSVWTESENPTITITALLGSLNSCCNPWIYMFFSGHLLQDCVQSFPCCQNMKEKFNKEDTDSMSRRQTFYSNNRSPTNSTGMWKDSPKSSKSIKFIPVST
Sequence of Oxytocin receptor (P30559 whole entry, the tested form may be a part): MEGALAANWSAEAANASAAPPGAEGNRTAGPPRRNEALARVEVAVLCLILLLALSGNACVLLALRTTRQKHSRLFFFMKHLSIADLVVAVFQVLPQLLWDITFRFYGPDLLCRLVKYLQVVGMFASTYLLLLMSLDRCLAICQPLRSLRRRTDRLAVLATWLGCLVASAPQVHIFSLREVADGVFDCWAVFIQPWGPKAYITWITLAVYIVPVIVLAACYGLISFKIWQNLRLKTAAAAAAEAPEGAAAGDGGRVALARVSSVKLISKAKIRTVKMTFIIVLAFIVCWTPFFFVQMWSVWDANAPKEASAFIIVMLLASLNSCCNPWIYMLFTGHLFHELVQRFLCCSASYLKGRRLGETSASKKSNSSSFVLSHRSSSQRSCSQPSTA
Sequence of Induced myeloid leukemia cell differentiation protein Mcl-1 (Q07820 whole entry): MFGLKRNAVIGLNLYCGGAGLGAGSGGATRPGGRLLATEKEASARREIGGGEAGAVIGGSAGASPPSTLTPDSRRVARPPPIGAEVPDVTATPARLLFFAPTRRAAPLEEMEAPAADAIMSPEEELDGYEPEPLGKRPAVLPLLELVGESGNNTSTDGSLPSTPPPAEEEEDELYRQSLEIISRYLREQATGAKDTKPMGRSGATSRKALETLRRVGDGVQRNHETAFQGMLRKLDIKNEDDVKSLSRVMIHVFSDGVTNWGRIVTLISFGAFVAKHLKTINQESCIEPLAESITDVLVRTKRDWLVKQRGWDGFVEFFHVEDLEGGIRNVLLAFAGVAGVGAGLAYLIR

## CN1C[C@@H]2C(c3ccccc3)C3(c4ccccc4)CC2(C3)[C@H]1c1ccccc1 (some centres undefined)
Cytochrome P450 3A4
  AC50: 5.01 µM (inconclusive)

## CCC(C)(C)c1ccc(Oc2ccc(N)cc2)cc1
[1]
  EC50: < 100 nM (active)
cells
  EC50: 482 nM (active)
[2]
  EC50: 216 nM (active)
[3]
  EC50: 432 nM (active)
[4]
  EC50: < 100 nM (active)
[5]
  EC50: 476 nM (active)

## COc1ccccc1C1=NN(C2=NN=C(N)Cc3ncnn32)C(O)(C(F)(F)F)C1 (centres undefined)
[6]
  EC50: 7.06 µM (active)
[7]
  EC50: 9.66 µM (active)
[8]
  IC50: 42.2 µM (active)
[9]
  EC50: 11.7 µM (active)

## Cc1cc(Cl)c(OCCCCN2CCOCC2)c(Br)c1
[10]
  IC50: > 100 µM (inactive)
Saccharomyces cerevisiae
  IC50: > 100 µM (inactive)

## COc1ccc(OC)c(NC(=O)CCN2CCC(C)CC2)c1
Bcl-2-like protein 10
  IC50: > 100 µM (inactive)

## O=C1CCCCCN1Cc1nnc(SCc2nc3ccccc3s2)n1-c1ccccn1
[11]
  EC50: 1.89 µM (active)
[12]
  EC50: 25 µM (active)
[13]
  EC50: 1.08 µM (active)
[14]
  EC50: > 195 µM (inactive)
[15]
  EC50: 207 nM (active)
H4
  EC50: 80.9 µM (inconclusive)

## N#Cc1c(NC(=O)CSc2ncnc3sccc23)oc(-c2ccco2)c1-c1ccco1
SUMO-activating enzyme [16]
  IC50: 2.82 µM (active)
[17]
  IC50: 27.8 µM (active)
[18]
  IC50: 4.69 µM (active)
[19]
  IC50: 8.79 µM (active)
SUMO-activating enzyme [20]
  IC50: 22.9 µM (active)

## COc1ccc(NC(=O)/C=C2\SC(=O)NC2=O)cc1
[21]
  IC50: > 150 µM (active)

## Cc1ccccc1Cn1nnc(C(=O)Nc2cccc(C)c2C)c1N
Vasopressin V1a receptor
  EC50: > 29.9 µM (not active)
Oxytocin receptor
  EC50: > 29.9 µM (not active)
[22]
  IC50: 39.8 µM (inactive)
